Measured values from PMC8319603, “Developing C2-Aroyl Indoles as Novel Inhibitors of IDO1 and Understanding Their Mechanism of Inhibition via Mass Spectroscopy, QM/MM Calculations and Molecular Dynamics Simulation” (Frontiers in Chemistry, 2021).
Where “and” joins values, the source holds several entries; their conditions need not be identical. Identical values can stand only once. Like-named read-outs stand apart in the source and are kept apart here.

Experiments:
[1] = Plasma protein binding in human plasma (rapid equilibrium dialysis); format: in vitro ADME; conditions: pH 7.4, human plasma
From the text: (§1) For the DMPK studies of the compound 8a-d we used rat as well as human plasmas. Rat plasma was purchased from Hylasco Biotechnology Pvt. Ltd.™ Hyderabad, India. We have not performed any in vivo experiments for this manuscript neither for animals nor for humans. […] Also please note the blood plasma was obtained from the blood of Dr Srinivas R Maddi, who donated it and is the co-author of this article. The DMPK studies were supplemented by kinetic solubility, Log p and Log D determinations, PAMPA permeability, Metabolic and Plasma stability in rat and human, and finally the plasma folding in rat and human. A thorough discussion of each step is mentioned in the supplementary information. […]
(§2) Plasma protein binding in rat and human plasma: To evaluate the ability of compound to bind the plasma proteins, the most common approach of plasma protein binding using rapid equilibrium dialysis device ( RED inserts) used. Compounds were tested at a final concentration of 10 μM in mouse, rat and human plasma. An aliquot of 500 μL plasma containing compound 3k was added in first half (plasma side) of the well of RED device. An aliquot of 300 μL of 100 mM sodium phosphate buffer pH 7.4 was added in the second half (buffer side) of the Insert. The plate containing plasma and […]

[2] = molecular target: T1, hIDO1 (ferric-IDO1 and deoxy ferrous-IDO1) (Homo sapiens, UniProt P14902); assay: UV-Vis absorption study of ligand binding to IDO1 (Soret band); conditions: ligand 25 µM, IDO1 1 µM, pH 6.5; 414 nm without ligand
T1 construct: purchased Biovision P1096
Procedure: All the measurements of binding of compound and enzyme were recorded at room temperature using an Agilent Cary 8454 UV-Vis diode array spectrophotometer with 1 cm light path. The experiments were performed in 50 mM potassium phosphate buffer pH- 6.5 with IDO1 protein concentration of 1 µM and compound concentration of 25 µM was incubate for 3 h at 37°C. The deoxy-form of protein was prepared by pre-purged with nitrogen gas and adding […] (∼5 fold excess) in protein with potassium phosphate system.

PAMPA permeability = format: in vitro ADME; conditions: for Papp at 5 h, 100 µM: phosphate buffer at pH 7.4
From the text: as §1
PAMPA permeability: PAMPA permeability was determined by addition of the compounds to the donor wells at 100µM concentration in a total volume of 300µL in triplicates. The acceptor wells were filled with 200µL of phosphate buffered saline, pH 7.4, while maintaining 5% DMSO concentration on both sides. The plates were sandwiched and incubated for 5hours at room temperature. After incubation, 150µL of the sample from both donor and receiver wells was collected and centrifuged at […]
4000rpm for 20 minutes. […]

Stability in rat plasma = format: in vitro ADME
From the text: as §1
(§3) Stability in rat and human plasma: Plasma stability is defined as the percentage of parent compound lost over time. The frozen plasma was thawed at room temperature and centrifuged at 1400 rpm 4 ℃, for 15 minutes. Approximately 90% of the clear supernatant fraction was transferred to a separate tube and was used for assay. The incubation mixtures consisted of human and rat palsma and compound (1 μM) or positive control (propanthelin, 1 μM) and incubated for 120 min at 37℃ in shaker with 500 rpm. All reactions were terminated using 200 μL of ice-cold acetonitrile containing internal standard (150 ng/mL of telmisartan) at 0, 15, 30, 60 and 120 min and centrifuged at 4000 rpm (Eppendorf, Germany) for 20min. The supernatants thus obtained were analyzed on LC-MS/MS to monitor the disappearance of compound. […]

[3] = Metabolic stability in human liver microsomes; format: in vitro ADME
Procedure: Metabolic stability in mouse, rat and human liver microsomes: Metabolic stability was defined as the percentage of parent compound lost over time in the presence of a metabolically active test system.
The incubation mixtures consisted of liver microsomes 1.0 mg microsomal protein /mL , compound 1 uM or positive control verapamil, 1 uM . The reactions were initiated by adding 1 mM NADPH.
Reactions without NADPH at 0 and 60 min were also incubated to rule out non-NADPH metabolism or chemical instability in the incubation buffer. All reactions were terminated using 200 uL of ice-cold acetonitrile containing internal standard 200 ng/mL of telmisartan at 0, 5, 15, 30 and 60 min. The vials were centrifuged at 4000 rpm for 20 min. The supernatants thus obtained were analyzed on LC-MS/MS to monitor the disappearance of compound. […]

[4] = Plasma protein binding in rat plasma (rapid equilibrium dialysis); format: in vitro ADME; conditions: for Rat plasma protein binding %Ge bound / Rat plasma protein binding %Ge free: 10 μM; for fraction unbound at 10 μM: pH 7.4
From the text: as §1, §2

[5] = Stability in human plasma; format: in vitro ADME
From the text: as §1, §3

[6] = molecular target: T2, recombinant protein of human IDO1 enzyme (Homo sapiens, UniProt P14902); assay: IDO1 enzymatic assay in vitro (kynurenine formation, absorbance 492 nm); format: biochemical; conditions: for IC50: read-out: IC50 against IDO1
T2 construct: purchased Biovision P1096
Procedure: The recombinant human IDO/TDO protein were purchased from Biovision (Catalog no.: P1096 human recombinant IDO1 and CSB-YP023351HU human recombinant TDO2). All the other HPLC grade solvent were purchased from Merck Pvt. Ltd. The IDO/TDO assays were performed according to the reported procedures.1 and 2, the details of which is mentioned in the SI.
20 µL of IDO1/TDO2 protein (1µg/ml concentration) was added and incubates for 10 min. After that 20 µL of 2 mM L-tryptophan was added and then treated with different test compounds concentration […]
The plate was then sealed well for 2hr incubation process at 37°C. After incubation, 40 µL of 30% TCA solution was added and again incubated for 15 min at 60 °C, the samples were centrifuged for 15 min at 13000 rpm at 4 °C. The 100 µL of supernatant was transferred in fresh 96 well plate and treated with 100 µL of freshly prepared 2% Ehlrich reagent which was then analyzed by absorbance plate reader at 492 nm to measure the extent of kynurenine formation. The DMSO content in the sample was 0.005 %. The final concentration of the compound in deep well plate was 5 µM. The IC50 values were calculated in triplicate by using GraphPadPrism […]
1. Water was substituted with L-tryphtophan
2. Water was substituted with L-tryhtophan and rhIDO/ rhTDO protein.
A = IDO activity in presence of inhibitor

[7] = Log P determination (octanol/water); format: physicochemical
From the text: as §1
Octanol and buffer layers were analysed by HPLC -UV by
adjusting the needle height for each Octanol and buffer and the amount of compound distributed i nto

[8] = 10 μM, read-out: Human plasma protein binding %Ge bound (converted)
[9] = 10 μM, read-out: Human plasma protein binding %Ge free
[10] = read-out: Fraction unbound in human plasma
[11] = recombinant human IDO1, dose response study

T2 sequence (P14902 whole entry): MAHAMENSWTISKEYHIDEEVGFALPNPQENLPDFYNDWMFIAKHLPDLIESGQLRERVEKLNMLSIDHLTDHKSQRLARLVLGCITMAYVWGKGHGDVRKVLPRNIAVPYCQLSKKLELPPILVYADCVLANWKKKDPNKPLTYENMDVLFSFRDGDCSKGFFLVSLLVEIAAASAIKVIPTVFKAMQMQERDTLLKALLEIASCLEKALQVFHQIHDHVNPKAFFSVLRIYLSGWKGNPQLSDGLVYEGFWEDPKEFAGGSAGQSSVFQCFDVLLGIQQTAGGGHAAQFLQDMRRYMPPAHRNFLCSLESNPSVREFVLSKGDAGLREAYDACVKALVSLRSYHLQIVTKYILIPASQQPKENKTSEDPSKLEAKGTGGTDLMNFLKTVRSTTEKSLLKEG
T1 sequence (P14902 whole entry): as above

| SMILES | fraction unbound at 10 μM [1, 8] | fraction unbound at 10 μM [1, 9] | fraction unbound at 10 μM [1, 10] | Soret band of deoxy ferrous-IDO1 in presence of ligand [2] | Permeability (PAMPA permeability) | Papp at 5 h, 100 µM (PAMPA permeability) | Rat plasma stability %Ge remaining after 120 min (Stability in rat plasma) | Human liver microsomal % QH (hepatic extraction ratio) [3] | Metabolic stability in liver microsomes [3] | Rat plasma protein binding %Ge bound [4] | Rat plasma protein binding %Ge free [4] | fraction unbound at 10 μM [4] | Human plasma stability %Ge remaining after 120 min [5] | Selectivity for IDO over TDO ([6]; IDO vs TDO) | IC50 ([6]; recombinant human IDO1) | logP [7] | Percentage inhibition of IDO1 ([6]; 5 μM concentration of compound, 5 µM) | inhibition at 5 µM ([6]; 5 μM concentration of compound, read-out: Percentage inhibition of IDO1) | IC50 [6, 11] |
| --- | --- | --- | --- | --- | --- | --- | --- | --- | --- | --- | --- | --- | --- | --- | --- | --- | --- | --- | --- |
| CC(=O)NCCc1c(C(=O)c2ccc([N+](=O)[O-])cc2)[nH]c2ccccc12 [8d] | 0.0952 | 0.0952 | 0.095 | 407 nm | very good | 15.4 ×10⁻⁶ cm/s | 91.3% | 33% and 32.6% | moderately stable | 82.1% | 17.9% | 0.179 | 85.0% | reasonable selectivity | 180 nM | 2.67 |  |  |  |
| CC(=O)NCCc1c(C(=O)c2cc(C(F)(F)F)cc(C(F)(F)F)c2)[nH]c2ccccc12 [8a] | 0.0064 | 0.0064 | 0.0064 | 407 nm and 430 nm | very good | 6.8 ×10⁻⁶ cm/s | 84.5% | 73.9% | unstable | 97.3% | 2.7% | 0.027 | 84.5% |  |  | > 3.5 | 37% | ~40% | 1450 nM |
| COC(=O)NCCc1c(C(=O)c2ccccc2)[nH]c2ccccc12 [8e] | 0.0213 | 0.0213 | 0.021 | 407 nm | very good | 32.3 ×10⁻⁶ cm/s | 96.3% | 58% | moderately stable | 95.9% | 4.1% | 0.041 | 108.3% |  |  | 2.88 |  |  | 1520 nM |
